Patent publication US20030040510A1, “Selective estrogen receptor modulators in combination with estrogens” (Endorecherche, Inc., priority 2000, published 2003)
“Also recorded” adds a separate entry of the source. Marks after values point to notes of the source that are not given here.

Experiments:
ovariectomized rats = assay: 5-diol alone or with Flutamide and/or EM-800 for 12 months in ovariectomized rats (bone mass, serum markers)
endometrial epithelium = assay: Thickness of uterine (endometrial) epithelial cells in the mice of Example 8; type: in vivo, nude mice; conditions: OVX + antiestrogen 200 μg daily, no estrone, 161 days
From the text: The 17 groups included two control groups (OVX and OVX+Estrone), seven groups supplemented with an estrone implant and treated with an antiestrogen and eight other groups that received an antiestrogen alone. The estrone implants were then removed from the animals in the ovariectomized control group (OVX) and in groups that were to receive the antiestrogen alone. […] Tamoxifen was purchased from […], Israel) while toremifene citrate was purchased from Orion (Espoo, Finland). […] Animals in both control groups received 0.2 ml of the vehicle alone. The antiestrogen suspensions at the appropriate concentration were prepared each month, stored at 4° C. and used under constant agitation. Powder stock were hermetically stored at 4° C. […] After 161 days of treatment, the remaining animals were anesthetized with isoflurane and killed by exsanguination. […] The uteri were prepared to evaluate endometrial thickness by image analysis performed with Image Pro-Plus (Media Cybernetics, Maryland, USA). […] Hematoxylin- and eosin-stained sections of mice uteri were analysed. […] Mean epithelial cell height was measured in all animals of each group.

[1] = tested on: breast and endometrial tissues; assay: Antiestrogens tested for SERM function and estrogenic activity in breast and endometrium
From the text: As used herein, a selective estrogen receptor modulator (SERM) is a compound that either directly or through its active metabolite functions as an estrogen receptor antagonist (“antiestrogen”) in breast tissue, yet provides estrogenic or estrogen-like effect on bone tissue and on serum cholesterol levels (i.e. by reducing serum cholesterol). Non-steroidal compounds that function as estrogen receptor antagonists in vitro or in human or rat breast tissue (especially if the compound acts as an antiestrogen on human breast cancer cells) is likely to function as a SERM. Conversely, steroidal antiestrogens tend not to function as SERMs because they tend not to display any beneficial effect on serum cholesterol. […] These SERMs may be called “pure SERMs”. […] This second series of SERMs may be called “mixed SERMs”. The unwanted estrogenic activities of these “mixed SERMs”, may be inhibited by addition of pure “SERMs” as shown in FIGS. 6 and 7 in in vitro tests and in FIG. 9 in an in vivo test of breast cancer.

[2] = tested on: ovariectomized female rats; assay: Prevention of bone loss, body fat, serum cholesterol and ALP, 3-month treatment of OVX rats (Example 5A, experiment 1); type: in vivo, Sprague-Dawley rats; conditions: 3 months
Experimental: (§1) Ten to twelve week-old female Sprague-Dawley rats (Crl:CD(SD)Br) (Charles River Laboratory, St-Constant, Canada) weighing approximately 220-270 g at start of treatment were used. The animals were acclimatized to the environmental conditions (temperature: 22±3° C.; humidity: 50±20%; 12-h light-12-h dark cycles, lights on at 07:15 h) for at least 1 week before starting the experiments. The animals were housed individually and were allowed free access to tap water and a pelleted certified rodent feed (Lab Diet 5002, Ralston Purina, St-Louis, Mo.). Experiments were conducted in an animal facility approved by the Canadian Council on Animal Care (CCAC) and the Association for Assessment and Accreditation of Laboratory Animal Care (AAALAC) in accordance with the CCAC Guide for Care and Use of Experimental Animals.
On day 1 of the study, the animals of the appropriate groups were bilaterally ovariectomized (OVX) under isoflurane anesthesia. […] Treatments were initiated on day 2 of the study and were performed once daily during 3 months.
After 3 months (experiment 1) or 26 weeks (experiment 2) of treatment, individual rats under Isoflurane anesthesia had their whole body skeleton and lumbar spine scanned using dual energy x-ray absorptiometry (DEXA; QDR 4500A, Hologic, Waltham, Mass.) and a Regional High Resolution Scan software. The bone mineral density (BMD) of the lumbar spine (vertebrae L2 to L4) and the total body composition (fat percentage) were determined.
After 3 months (experiment 1) or 26 weeks (experiment 2) of treatment, blood samples were collected at the jugular vein from overnight fasted animals (under Isoflurane anesthesia). Samples were processed for serum preparation and frozen at −80° C. until assay. Serum cholesterol levels and alkaline phospatase activity (ALP) were determined using the Boehringer Mannheim Diagnostic Hitachi 911 Analyzer (Boehringer Mannheim Diagnostic Laboratory Systems).

ZR-75-1 breast tumors = assay: Growth and response category of human ZR-75-1 breast tumors in OVX nude mice, 7 antiestrogens, 161 days (Example 8); type: in vivo; conditions: 161 days
Experimental: The mice (5 per cage) were housed in vinyl cages equipped with air filter lids, which were kept in laminar airflow hoods and maintained under pathogen-limiting conditions. The photoperiod was 12 hours of light and 12 hours of darkness (lights on at 07:15). Cages, bedding and food (Agway Pro-Lab R-M-H Diet #4018) were autoclaved before use. Water was autoclaved and provided ad libitum. Bilateral ovariectomy was performed under isoflurane-induced anesthesia. […] Randomization and treatments were started one week later. […] The 17 groups included two control groups (OVX and OVX+Estrone), seven groups supplemented with an estrone implant and treated with an antiestrogen and eight other groups that received an antiestrogen alone. The estrone implants were then removed from the animals in the ovariectomized control group (OVX) and in groups that were to receive the antiestrogen alone. […] Tamoxifen was purchased from […], Israel) while toremifene citrate was purchased from Orion (Espoo, Finland). […] Animals in both control groups received 0.2 ml of the vehicle alone. The antiestrogen suspensions at the appropriate concentration were prepared each month, stored at 4° C. and used under constant agitation. Powder stock were hermetically stored at 4° C. […] Tumor response was assessed at the end of the study or at death of each animal, if it occurred during the course of the experiment. In this case, only data of mice that survived for at least half of the study (84 days) were used in the tumor response analysis.

[3] = tested on: uterus and vagina of ovariectomized nude mice; assay: Uterine, vaginal and body weight in the xenograft-bearing OVX nude mice (Example 1)
[4] = tested on: ZR-75-1 breast tumor xenografts; assay: Growth of human ZR-75-1 breast tumor xenografts in OVX nude mice supplemented with estrone (DHEA, EM-800; Example 1); conditions: OVX + E1; for Inhibition of E1-stimulated ZR-75-1 tumor size / Inhibition of terminal tumor weight / Average tumor weight: 9.5 months
[5] = tested on: OVX rats having established osteopenia; assay: Treatment of OVX rats having established osteopenia, 26 weeks (Example 5B): BMD, total body fat; type: in vivo, Sprague-Dawley rats; conditions: treatment started 10 weeks after OVX, 26 weeks daily
Experimental: as §1, with “Height” for “Ten”, “nine month-old” for “twelve week-old”, “Canada)” for “Canada) weighing approximately 220-270 g at start of treatment”, “used in this experiment.” for “used.”, “prior to” for “before starting”, “ovariectomy. Animals were bilaterally ovariectomized (OVX) under isoflurane anesthesia. Twenty animals were kept intact as control.” for “experiments.”
Treatments were initiated 10 weeks after the ovariectomy and were performed once daily during 26 weeks. Animals not receiving a test article were treated with the appropriate vehicle alone during the same period.
Prior to the OVX, prior to the first day treatment (10 weeks after OVX) and after 26 weeks of treatment, individual rats under Isoflurane anesthesia had their whole body skeleton, lumbar spine and right femur scanned using dual energy x-ray absorptiometry (DEXA; QDR 4500A, Hologic, Waltham, Mass.) and a Regional High Resolution Scan software. The bone mineral density (BMD) of the lumbar spine (vertebrae L2 to L4), femur and the total body composition (fat percentage) were determined.

[6] = tested on: bone metabolism in the rat; assay: Biochemical parameters of bone metabolism (urine, serum) after DHEA and/or EM-800; type: in vivo; conditions: DHEA 10 mg, EM-800 75 μg
From the text: Data are expressed as the means±SEM.**: P<0.01 experimental versus respective control.
It is particularly important to indicate that the combination of DHEA and EM-800 exerted unexpected beneficial effects on important biochemical parameters of bone metabolism. […] Moreover, no effect of DHEA could be detected on daily urinary calcium or phosphorus excretion (Luo et al., Endocrinology 138: 4435-4444, 1997). EM-800, decreased the urinary hydroxyproline/creatinine ratio by 48% while, similarly to DHEA, no effect of EM-800 was seen on urinary calcium or phosphorus excretion. EM-800, moreover, had no effect on serum alkaline phosphatase activity, a marker of bone formation while DHEA increased the value of the parameter by about 75% (Luo et al., Endocrinology 138: 4435-4444, 1997).

[7] = tested on: bone metabolism in the rat; conditions: cited from earlier work
[8] = DHEA 0.3 mg (alone or with EM-800 15 μg)
[9] = DHEA 1.0 mg (alone or with EM-800 15 μg)
[10] = DHEA 3.0 mg (alone or with EM-800 15 μg)
[11] = OVX rats, E2 1 mg/kg, EM-652.HCl 2.5 mg/kg, DHEA 80 mg/kg

## CC(C)C(=O)Nc1ccc([N+](=O)[O-])c(C(F)(F)F)c1 [FLU, Flutamide]
Ovariectomized rats; simultaneous FLU, vs 12.5 mg 5-diol alone
  Reversal of 5-diol-stimulated serum alkaline phosphatase activity: 57%

## CC/C(=C(\c1ccccc1)c1ccc(/C=C/C(=O)O)cc1)c1ccccc1 [GW 5638]
Endometrial epithelium
  Endometrial epithelium thickness: 22.22^a ± 0.05 μm
[1]
  Function as SERM: found to function as SERMs
[1]; physiological or pharmacological concentrations
  Estrogenic activity in breast and endometrial tissues: have some estrogenic activities
[2]; OVX rats
  Serum ALP: 72 ± 6 IU/L
[2]; alone or in combination with E2
  OVX-induced increase on serum cholesterol levels: completely prevented
ZR-75-1 breast tumors; 50 μg daily + estrone
  Progressing tumors: 77%
ZR-75-1 breast tumors; 200 μg daily alone, absence of estrone
  Change of ZR-75-1 tumor size compared to the OVX control group: did not significantly change

## C[C@]12CC[C@H]3[C@@H](CC=C4C[C@@H](O)CC[C@@]43C)[C@@H]1CC[C@@H]2O [5-diol, androst-5-ene-3β,17β-diol]
Ovariectomized rats; 5-diol
  Serum alkaline phosphatase activity: marked stimulation
  Urinary ratio of calcium to creatinine: no statistically significant inhibitory effect
Ovariectomized rats; highest dose of 5-diol
  Reduction of serum cholesterol: 23%

## C[C@]12CC[C@H](O)CC1=CC[C@@H]1[C@@H]2CC[C@]2(C)C(=O)CC[C@@H]12 [DHEA, dehydroepiandrosterone, reference compound]
[3]; 9.5 months
  Effect on body weight adjusted for tumor weight: No significant effect
[3]; addition of DHEA to estrone
  Effect on estrone-stimulated vaginal weight: had no significant effect
[3]; highest dose of DHEA used
  Inhibition of the stimulatory effect of estrone on uterine weight: 26%
[4]; DHEA 0.3 mg percutaneous
  Inhibition of E1-stimulated ZR-75-1 tumor size: 50.4%
[4]; DHEA 0.3 mg
  Inhibition of terminal tumor weight: 67%
[4]; DHEA 1.0 mg percutaneous
  Inhibition of E1-stimulated ZR-75-1 tumor size: 76.8%
[4]; DHEA 1.0 mg
  Inhibition of terminal tumor weight: 82%
[4]; DHEA 3.0 mg percutaneous
  Inhibition of E1-stimulated ZR-75-1 tumor size: 80.0%
[4]; DHEA 3.0 mg
  Inhibition of terminal tumor weight: 85%
[4]; [8]
  Category of response: Partial: 0 (0) Number and (%)
  Average tumor weight: 0.37 ± 0.12 g
[4]; [9]
  Category of response: Partial: 0 (0) Number and (%)
  Average tumor weight: 0.20 ± 0.06 g
[4]; [10]
  Category of response: Partial: 0 (0) Number and (%)
  Average tumor weight: 0.17 ± 0.06 g
[5]
  Femoral BMD: completely prevented the further decrease
  Lumbar spine BMD: completely prevented the further decrease
  Total body fat: prevented the 17% increase
[6]
  Serum tALP: 198.38 ± 30.76* IU/L
  Urine HP/Cr: 14.02 ± 1.59 μmol/mmol
  Urine calcium: 25.87 ± 3.54 μmol/24h/100g
  Urine phosphorus: 151.41 ± 14.57 μmol/24h/100g
[2]; OVX rats
  Serum ALP: 224±18 IU/L
  Serum cholesterol: 1.59 ± 0.10 mmol/L
  Total fat: 17.3 ± 1.5 %
[2]; [11]
  Lumbar spine BMD: 0.2321 ± 0.0034 g/cm^2
  Lumbar spine, Prevention of Bone Loss: 43%
[7]
  Decrease of urinary hydroxyproline/creatinine ratio: did not affect; also recorded: did not show any effect
  Effect on daily urinary calcium or phosphorus excretion: no effect
  Increase of serum alkaline phosphatase activity: about 75%
